Reference: patent US6815426B2, “Angiogenesis-inhibitory tripeptides, compositions and their methods of use” (E. I. du Pont de Nemours and Company, priority 2001, dated 2004)
Entries after “also recorded” stand apart in the source; their conditions may differ. Where a SMILES comes first, the peptide text is derived from it. Where no end group is shown, it is not given here. [ ]: non-standard residue; d: D form. ξ: configuration not given here. ξHyp = O=C(O)C1CC(O)CN1

What was measured:
[1] = system: Human umbilical vein endothelial cells (HUVEC); assay: FGF2-stimulated endothelial cell tube formation on Matrigel matrix; type: cell-based; details: for Cell Tube Formation (area) / Cell Tube Formation (length): HUVEC on Matrigel, FGF2 100 ng/mL, peptide 0.015 μmol added with FGF2, overnight; for Cell Tube Formation (length): length/area; for Inhibition of FGF2-stimulated EC tube formation, in words: in vitro, qualitative ranking; for % inhibition cell tube formation (area) / % inhibition cell tube formation (length): peptide 0.015 μmol, FGF2-stimulated HUVEC
Method: Differentiation by endothelial cells was examined using a method developed by Grant et al. (In Vitro Cell Dev. Biol. 27A:327-336 (1991)). Matrigel® matrix, phenol-red free (commercially available from Becton Dickinson, Bedford, Mass.) was thawed overnight at 4° C. Using cold pipette tips, 3.0 mg/well of Matrigel® matrix was placed in a cold twenty-four-multiwell plate (Falcon). Matrigel® matrix was allowed to polymerize during incubation at 37° C. for 30 min. Human umbilical vein endothelial cells (HUVEC) were maintained at 37° C. with 5% CO2 and 95% humidity in endothelial cell growth medium with 2% fetal bovine serum (EGM). Tube assay was performed in endothelial cell basal medium (EBM) supplemented with 0.5% bovine serum albumin (BSA) and 1:100 diluted Insulin-Transferrin-Selenium-G supplement (I-T-Se, 100×). HUVEC were trypsinized and centrifuged and subsequently, washed twice in phosphate buffered saline (PBS). After counting, cell density was adjusted to 35,000 cells/mL. At final concentration of 35,000 cells/mL/well were treated with recombinant human fibroblast growth factor basic (FGF2) at 100 ng/mL and peptides (see below) dissolved in EBM medium at to a concentration of 0.015 μmol. Treated cells were incubated overnight at 37° C. with 5% CO2 and 95% humidity to allow cell attachment. Subsequently, the medium was aspirated and cells were fixed and stained using a modified HEMA-3 stain kit. Digital images of microtiter well sections were collected using a DKC5000 3-CCD color video camera system (Toshiba America, New York, N.Y.) and analyzed with the Image-Pro Plus software (Media Cybernetics, Silver Spring, Md.). The area and major axis length of stained cells having a tubular morphology on the Matrigel® matrix surface (Becton Dickinson, Bedford, Pa.) counted from 5 images/well.

[2] = system: FGF2-induced angiogenesis in the chorioallantoic membrane (CAM); assay: FGF2-induced neovascularization on the chick chorioallantoic membrane (CAM), branch point count; type: in vivo; details: for Average # of Branch Points: FGF2 filter disk on CAM, peptide 16 μg topically, 48 h; for % Inhibition of branch point formation: 16 μg, FGF2-stimulated CAM
Method: In vivo neovascularization was examined by the method previously described by Auerbach et al. (J. Dev. Biol. 41:391-394 (1974)). Ten-day old embryos were purchased from Spafas, Inc. (Preston, Conn.) and were incubated at 37° C. with 55% relative humidity. In the dark with the help of a candling lamp a small hole was punctured in the shell concealing the air sac with a hypodermic needle. A second hole was punctured in the shell on the broadside of the egg directly over an […] portion of the embryonic membrane, as observed during candling. A false air sac was created beneath the second hole by the application of negative pressure to the first hole, which caused the chorioallantoic membrane (CAM) to separate from the shell. A window, approximately 1.0 cm^2, was cut in the shell over the dropped CAM with the use of a small crafts grinding wheel (Dremel, Division of Emerson Electric Company Racine, WI) which allowed direct access to the underlying CAM. Filter disks of #1 filter paper (Whatman International, United Kingdom) were soaked in 3 mg/mL cortisone acetate (Sigma, St. Louis, Mo.) in a solution of 95% ethanol and water and subsequently air dried under sterile conditions. FGF2 (Life Technologies, Gaithersburg, Md.) was used to grow vessels on the CAMs of 10-d old chick embryos. Sterile filter disks adsorbed with FGF2 dissolved in PBS at 1 μg/mL were placed on growing CAMs. At 24 h, test compounds or control vehicle was added directly to CAMs topically.
CAM tissue directly beneath FGF2-saturated filter disk was resected from embryos treated 48 h prior with compound or control. Tissues were washed three times with PBS. Sections were placed in a 35-mm petri dish (Nalge Nunc, Rochester, N.Y.) and examined under a SV6 stereomicroscope (Karl Zeiss, Thornwood, N.Y.) at 50× magnification. Digital images of CAM sections adjacent to filters were collected using a 3-CCD color video camera system (Toshiba America, New York, N.Y.) and analyzed with the Image-Pro Plus software (Media Cybernetics, Silver Spring, Md.) and can be seen in FIG. 2. Table 3 contains the number of vessel branch points contained in a circular region equal to the area of a filter disk counted for each section. Percent inhibition data is expressed as the quotient of the experimental value minus the negative control value divided by the difference between the positive control value and the negative control value.

[3] = system: TSU-Pr (human prostrate) tumor; details: 45 μg, after 7 d
Method: Ten million tumor cells were placed on the surface of each CAM (7-d old embryo) and were cultured for one week. The resulting tumors were excised and cut into 50 mg fragments. […] Each treatment group incorporated at least ten tumors per experiment. Representative tumors were photographed at 10× magnification. Tumors were then excised from the egg and tumor weights were determined for each tumor. Data is presented as mean tumor weight per treatment group (±standard error of the mean). Statistical analysis was performed using Student's t-test.

human melanoma cells [4] = details: cited from earlier work
human melanoma cells [5] = details: cited from earlier work; remark: listed apart in the source

Compound	Inhibition of FGF2-stimulated EC tube formation, in words [1]	% Inhibition of Branch Points in FGF2-Induced CAM Assay ([2]; 1 μg/CAM)	% Inhibition of Branch Points in FGF2-Induced CAM Assay ([2]; 5 μg/CAM)	% Inhibition of Branch Points in FGF2-Induced CAM Assay ([2]; 15 μg/CAM)	% inhibition cell tube formation (area) [1]	% inhibition cell tube formation (length) [1]	further results
FGF2: recombinant human fibroblast growth factor basic, angiogenic stimulus [reference compound]	–	–	–	–	–	–	Cell Tube Formation (area) [1]: 2.2501 +/− 0.28 10^4 square microns; Cell Tube Formation (length) [1]: 79.8272 +/− 8.66 mm/mm^2; Average # of Branch Points [2]: 263.88
CC(=O)N[C@@H](CO)C(=O)N[C@@H](CC(N)=O)C(=O)N[C@H](CO)C(N)=O [SNs] (Ac-Ser-Asn-[dS]-NH2)	most potent	62% +/− 7	78% +/− 6	69% +/− 8	–	–	–
acetyl-Ser-Asn-Ser-Tyr-Ser-Phe-Trp-Leu (Ac-SNSYSFWL) [SEQ ID NO: 3, As defined in b173]	–	–	–	–	75% +/− 7	65% +/− 3	–
CC(=O)NC(CO)C(=O)NC(CC(N)=O)C(=O)NC(CO)C(N)=O (stereo not drawn) [acetyl-SNS-carboxamide, acetyl-Ser-Asn-Ser-carboxamide] (Ac-Ser-Asn-Ser-NH2; configuration not given here)	very potent inhibitor; also recorded: more potent inhibitor	–	–	–	97% +/− 8	84% +/− 9	Cell Tube Formation (area) [1]: 1.1011 +/− 0.12 10^4 square microns; Cell Tube Formation (length) [1]: 47.5267 +/− 4.31 mm/mm^2; % ave inhibition of TSU-Pr tumor growth (weight) ([3]; injected into tumors): 111%; Tumors showing significant weight shrinkage ([3]; ten tumors injected): Six tumors out of the ten; % Inhibition of branch point formation [2]: 100.23%; % Inhibition of branch point formation ([2]; listed as acetyl-Ser-Asn-Ser-carboxamide): 100%; Average # of Branch Points [2]: 91.60
Ser-Gln-Ser [SQS]	most potent	101% +/− 7	121% +/− 6	82% +/− 7	–	–	–
CNYYSNSYSFWLASLNPER [SEQ ID NO:1, peptide of residues 185-203 of the NC1 domain of the α3-chain of collagen type IV]	–	–	–	–	–	–	Inhibition of proliferation of human melanoma cells (human melanoma cells [4]): 40%; Promotion of adhesion of human melanoma cells over controls (human melanoma cells [5]): 50-60%
CC(=O)N[C@@H](CO)C(=O)N[C@@H](CC(N)=O)C(=O)N1CC(O)CC1C(N)=O (stereo partly drawn) [SN-t4Hyp] (Ac-Ser-Asn-[ξHyp]-NH2)	most potent	39% +/− 11	60% +/− 7	71% +/− 8	–	–	–
acetyl-Cys-Asn-Tyr-Tyr-Ser-Asn-Ser-Tyr-Ser-Phe-Trp-Leu (Ac-CNYYSNSYSFWL) [SEQ ID NO: 4, As defined in b173]	–	–	–	–	71% +/− 6	54% +/− 3	–
